Results taken from ChEMBL document CHEMBL1137597, “Evolution of thiazolidine-based blockers of human Kv1.5 for the treatment of atrial arrhythmias” (Bioorg Med Chem Lett, 2007).

Legend:
[1] = molecular target: T1, Potassium voltage-gated channel subfamily A member 5 (Homo sapiens, UniProt P22460); assay: Inhibition of Kv1.5 mediated ultra-rapid delayed rectifier current Ikur in human atrial cells; format: functional, cell-based, Cardiac atrium
[2] = molecular target: T1, Potassium voltage-gated channel subfamily A member 5; assay: Inhibition of ultra-rapid delayed rectifier current Ikur in human atrial cells at 1uM; format: functional, cell-based; conditions: Cardiac atrium
[3] = Percent oxidation in rat S9 microsomal fraction; format: ADME; conditions: read-out: Oxidation

T1 sequence (P22460 whole entry): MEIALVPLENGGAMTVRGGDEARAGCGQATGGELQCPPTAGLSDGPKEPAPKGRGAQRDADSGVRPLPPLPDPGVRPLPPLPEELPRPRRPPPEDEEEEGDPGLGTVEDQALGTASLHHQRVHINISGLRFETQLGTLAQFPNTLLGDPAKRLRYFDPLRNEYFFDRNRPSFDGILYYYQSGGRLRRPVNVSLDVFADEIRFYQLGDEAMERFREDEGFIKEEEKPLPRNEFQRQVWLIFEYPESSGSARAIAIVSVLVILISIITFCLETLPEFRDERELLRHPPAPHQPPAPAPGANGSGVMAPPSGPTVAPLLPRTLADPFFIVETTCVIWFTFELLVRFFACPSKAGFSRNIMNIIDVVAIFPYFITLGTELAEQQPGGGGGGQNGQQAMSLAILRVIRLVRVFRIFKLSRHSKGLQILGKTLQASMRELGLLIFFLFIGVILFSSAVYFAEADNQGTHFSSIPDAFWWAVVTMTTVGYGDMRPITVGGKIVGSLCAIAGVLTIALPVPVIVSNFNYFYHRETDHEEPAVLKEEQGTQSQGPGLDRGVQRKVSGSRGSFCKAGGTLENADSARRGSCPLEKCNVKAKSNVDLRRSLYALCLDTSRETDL

IC50 [1] | inhibition [2] | metabolised [3] | SMILES
269 nM | 75% |  | COc1cccc(CON2C(=O)CSC2c2ccc(C)c(C)c2)c1 (stereo not drawn)
997 nM | 35% |  | O=C1CSC(c2ccc(Cl)cc2)N1OCc1ccccc1 (stereo not drawn)
95 nM |  |  | COc1ccc(CON2C(=O)CSC2c2ccc(C)c(C)c2)cc1 (stereo not drawn)
207 nM | 92% |  | Cc1ccc(C2SCC(=O)N2OCc2ccccc2)cc1C (stereo not drawn)
380 nM |  |  | COc1cccc(CON2C(=O)CSC2c2ccc(Cl)cc2)c1 (stereo not drawn)
187 nM |  |  | COc1ccc(CON2C(=O)CSC2c2ccc(Cl)cc2)cc1 (stereo not drawn)
113 nM | 92% |  | COc1ccc(CON2C(=O)CSC2c2ccc(Cl)c(Cl)c2)cc1 (stereo not drawn)
924 nM |  |  | COc1ccc(CON2C(=O)CSC2c2ccccc2)cc1 (stereo not drawn)
 | 25% |  | COc1ccccc1CON1C(=O)CSC1c1ccc(Cl)cc1 (stereo not drawn)
463 nM | 77% |  | O=C1CSC(c2ccc(Cl)c(Cl)c2)N1OCc1ccccc1 (stereo not drawn)
177 nM | 92% |  | COc1ccccc1CON1C(=O)CSC1c1ccc(C)c(C)c1 (stereo not drawn)
179 nM |  |  | COc1cccc(CON2C(=O)CSC2c2ccc(Cl)c(Cl)c2)c1 (stereo not drawn)

Continued, compound first:

SMILES | IC50 [1] | inhibition [2] | metabolised [3]
COc1ccccc1CON1C(=O)CSC1c1ccc(Cl)c(Cl)c1 (stereo not drawn) | 204 nM |  | 
Cc1ccc(C2SCCN2C(=O)OCc2ccccc2)cc1C (stereo not drawn) |  | 18% | 
COc1ccc(CCN2C(=O)CSC23CCc2cc(Cl)ccc23)cc1 (stereo not drawn) | 812 nM | 66% | 
Cc1ccc(C2SCCN2C(=O)COc2ccccc2)cc1C (stereo not drawn) |  | 95% | 
COc1ccc(CCCC(=O)N2CCSC2c2ccc(C)c(C)c2)cc1 (stereo not drawn) |  | 68% | 
COc1ccc(CCC(=O)N2CCSC2c2ccc(C)c(C)c2)cc1 (stereo not drawn) | 150 nM | 89% | 
COc1ccc(CCN2C(=O)CSC2(C)c2ccc(C)cc2)cc1 (stereo not drawn) | 390 nM | 88% | 
O=C(COc1ccccc1)N1CCSC1c1ccc(Cl)c(Cl)c1 (stereo not drawn) |  | 93% | 
COc1ccc(C2SCCN2C(=O)COc2ccccc2)cc1 (stereo not drawn) |  | 72% | 
CN(C)c1ccc(C2SCCN2C(=O)COc2ccccc2)cc1 (stereo not drawn) |  | 55% | 
COc1ccc(CC(=O)N2CCSC2c2ccc(Cl)c(Cl)c2)cc1 (stereo not drawn) |  |  | 100%
COc1ccc(CCN2C(=O)CSC2(C)c2ccc(C)c(C)c2)cc1 (stereo not drawn) | 69 nM | 96% | 
COc1ccc(C2SCCN2C(=O)COc2ccccc2)cc1Cl (stereo not drawn) |  | 35% | 
COc1ccc(CC(=O)N2CCSC2c2ccc(C)c(C)c2)cc1 (stereo not drawn) | 537 nM | 77% | 
COc1ccc(CCN2C(=O)CSC23CCc2c(C)cccc23)cc1 (stereo not drawn) | 487 nM | 61% | 
O=C(COc1ccccc1)N1CCSC1c1ccc(C2CC2)cc1 (stereo not drawn) |  | 64% | 
COc1ccc(/C=C/C(=O)N2CCSC2c2ccc(C)c(C)c2)cc1 (stereo not drawn) |  | 92% | 
Cc1ccc(C2SCCN2C(=O)COc2ccccc2)cc1 (stereo not drawn) |  | 80% | 
Cc1ccc(C2SCCN2C(=O)CCc2ccccc2)cc1C (stereo not drawn) |  | 87% | 
